{"source": "patent US20210338693A1", "about": "“Gel Compositions for Transdermal Delivery to Maximize Drug Concentrations in the Stratum Corneum and Serum and Methods of Use Thereof” (Viramal Limited, priority 2016, published 2021)", "origin": "cited, not measured here", "conditions": "in vivo", "data": [{"smiles": "C[C@]12CC[C@H]3[C@@H](CCC4=CC(=O)CC[C@@]43C)[C@@H]1CC[C@@H]2O", "note": "[Testosterone]", "values": [{"measurement": "half-life", "value": 1.4, "unit": "h"}]}]}
